Measurements as given in the supplement of paper PMC10307832.

Legend:
Assay in all cases: relative viability (nuclei count vs DMSO), 5 days (fraction); higher = more cells survive
Etoposide + Palbociclib = compound: COc1cc([C@@H]2c3cc4c(cc3[C@@H](O[C@@H]3O[C@@H]5CO[C@@H](C)O[C@H]5[C@H](O)[C@H]3O)[C@H]3COC(=O)[C@H]23)OCO4)cc(OC)c1O [Etoposide] + CC(=O)c1c(C)c2cnc(Nc3ccc(N4CCNCC4)cn3)nc2n(C2CCCC2)c1=O [Palbociclib] (partner 0.5 µM)
Summary of the method: (§1)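 Relative viability equals treated-well nuclei counts divided by vehicle-well nuclei counts. Counts came from 4× images of lung cancer cell lines grown in 1536-well plates for 5 days after pin-tool dosing on the day after seeding. Dosing used one drug alone or a fixed anchor-drug dose plus five library-drug doses (not always all listed) in √10 steps, and values are medians of duplicate plates.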

Bleomycin + AZD7762 = compound: CC1=C(N=C(N=C1N)[C@H](CC(=O)N)NC[C@@H](C(=O)N)N)C(=O)N[C@@H]([C@H](C2=CN=CN2)OC3C(C(C(C(O3)CO)O)O)OC4C(C(C(C(O4)CO)O)OC(=O)N)O)C(=O)N[C@H](C)[C@H]([C@H](C)C(=O)N[C@@H]([C@@H](C)O)C(=O)NCCC5=NC(=CS5)C6=NC(=CS6)C(=O)NCCC[S+](C)C)O [Bleomycin] + NC(=O)Nc1cc(-c2cccc(F)c2)sc1C(=O)N[C@H]1CCCNC1 [AZD7762] (partner 0.2 µM); settings: main component drawn
Summary of the method: as §1

Bleomycin + Palbociclib = compound: CC1=C(N=C(N=C1N)[C@H](CC(=O)N)NC[C@@H](C(=O)N)N)C(=O)N[C@@H]([C@H](C2=CN=CN2)OC3C(C(C(C(O3)CO)O)O)OC4C(C(C(C(O4)CO)O)OC(=O)N)O)C(=O)N[C@H](C)[C@H]([C@H](C)C(=O)N[C@@H]([C@@H](C)O)C(=O)NCCC5=NC(=CS5)C6=NC(=CS6)C(=O)NCCC[S+](C)C)O [Bleomycin] + CC(=O)c1c(C)c2cnc(Nc3ccc(N4CCNCC4)cn3)nc2n(C2CCCC2)c1=O [Palbociclib] (partner 0.5 µM); settings: main component drawn
Summary of the method: as §1

Bleomycin + Luminespib = compound: CC1=C(N=C(N=C1N)[C@H](CC(=O)N)NC[C@@H](C(=O)N)N)C(=O)N[C@@H]([C@H](C2=CN=CN2)OC3C(C(C(C(O3)CO)O)O)OC4C(C(C(C(O4)CO)O)OC(=O)N)O)C(=O)N[C@H](C)[C@H]([C@H](C)C(=O)N[C@@H]([C@@H](C)O)C(=O)NCCC5=NC(=CS5)C6=NC(=CS6)C(=O)NCCC[S+](C)C)O [Bleomycin] + CCNC(=O)c1noc(-c2cc(C(C)C)c(O)cc2O)c1-c1ccc(CN2CCOCC2)cc1 [Luminespib] (partner 0.01 µM); settings: main component drawn
Summary of the method: as §1

Cell Line | relative viability (Etoposide + Palbociclib; first compound 0.01 µM) | relative viability (Etoposide + Palbociclib; first compound 0.03162 µM) | relative viability (Etoposide + Palbociclib; first compound 0.1 µM) | relative viability (Etoposide + Palbociclib; first compound 0.3162 µM) | relative viability (Etoposide + Palbociclib; first compound 1 µM) | relative viability (Bleomycin + AZD7762; first compound 0.01 µM) | relative viability (Bleomycin + AZD7762; first compound 0.03162 µM) | relative viability (Bleomycin + AZD7762; first compound 0.1 µM) | relative viability (Bleomycin + AZD7762; first compound 0.3162 µM) | relative viability (Bleomycin + AZD7762; first compound 1 µM) | relative viability (Bleomycin + Palbociclib; first compound 0.01 µM) | relative viability (Bleomycin + Palbociclib; first compound 0.03162 µM) | relative viability (Bleomycin + Palbociclib; first compound 0.1 µM) | relative viability (Bleomycin + Palbociclib; first compound 0.3162 µM) | relative viability (Bleomycin + Palbociclib; first compound 1 µM) | relative viability (Bleomycin + Luminespib; first compound 0.01 µM) | relative viability (Bleomycin + Luminespib; first compound 0.03162 µM) | relative viability (Bleomycin + Luminespib; first compound 0.1 µM) | relative viability (Bleomycin + Luminespib; first compound 0.3162 µM) | relative viability (Bleomycin + Luminespib; first compound 1 µM)
NCI-H1395 | 0.625 | 0.595 | 0.555 | 0.638 | 0.545 | 0.371 | 0.401 | 0.352 | 0.392 | 0.324 | 0.518 | 0.549 | 0.499 | 0.341 | 0.342 | 0.648 | 0.648 | 0.54 | 0.397 | 0.47
NCI-H2087 | 0.211 | 0.19 | 0.214 | 0.215 | 0.193 | 0.981 | 1.2 | 1.31 | 0.976 | 0.512 | 0.222 | 0.236 | 0.221 | 0.118 | 0.147 |  | 0.162 | 0.188 | 0.124 | 0.142
LU99A | 0.392 | 0.427 | 0.266 | 0.226 | 0.166 | 0.298 | 0.261 | 0.203 | 0.157 | 0.121 | 0.329 | 0.405 | 0.286 | 0.167 | 0.126 | 0.297 | 0.283 | 0.256 | 0.172 | 0.162
NCI-H1355 | 0.423 | 0.473 | 0.275 | 0.355 | 0.281 | 0.783 | 0.9 | 0.783 | 0.63 | 0.323 | 0.402 | 0.382 | 0.396 | 0.253 | 0.221 | 0.672 | 0.606 | 0.698 | 0.304 | 0.289
HCC-78 | 0.403 | 0.522 | 0.534 | 0.402 | 0.378 | 0.607 | 0.683 | 0.599 | 0.528 | 0.493 | 0.522 | 0.533 | 0.412 | 0.4 | 0.463 |  |  |  |  | 
NCI-H1563 |  |  |  |  |  |  |  |  |  |  |  |  |  |  |  | 0.512 | 0.535 | 0.479 | 0.487 | 0.465
HCC-15 | 0.623 | 0.695 | 0.828 | 0.468 | 0.244 | 1.07 | 1.03 | 1.13 | 0.579 | 0.599 | 0.711 | 0.686 | 0.648 | 0.343 | 0.285 | 0.183 | 0.231 | 0.203 | 0.164 | 0.144
EKVX | 0.358 | 0.434 | 0.21 | 0.375 | 0.282 | 0.607 | 0.598 | 0.544 | 0.538 | 0.237 | 0.366 | 0.366 | 0.299 | 0.209 | 0.189 | 0.79 | 0.824 | 0.804 | 0.357 | 0.264
